# In the NIST ThermoML archive (doi:10.1016/j.tca.2004.11.013):
# Numbers after ± are expanded uncertainties.
# Experiments:
# [1] = molar heat capacity at constant pressure; details: 101.33 kPa, Liquid, Small sample (50 mg) DSC
# [2] = for viscosity: 298 K, moving piston; for viscosity / thermal conductivity / mass density: 101.33 kPa, Liquid; for thermal conductivity: hot wire; for mass density: 333.1 K, Vibrating tube method; for Normal melting temperature: Crystal
# [3] = Molar enthalpy of transition or fusion; details: Crystal; DSC
Structure (SMILES),molar heat capacity at constant pressure ([1]; 273.15 K) [J/K/mol],molar heat capacity at constant pressure ([1]; 323.15 K) [J/K/mol],molar heat capacity at constant pressure ([1]; 348.15 K) [J/K/mol],molar heat capacity at constant pressure ([1]; 373.15 K) [J/K/mol],molar heat capacity at constant pressure ([1]; 398.15 K) [J/K/mol],molar heat capacity at constant pressure ([1]; 423.15 K) [J/K/mol],molar heat capacity at constant pressure ([1]; 448.15 K) [J/K/mol],molar heat capacity at constant pressure ([1]; 473.15 K) [J/K/mol],viscosity [2] [mPa·s],thermal conductivity ([2]; 300 K) [W/m/K],thermal conductivity ([2]; 310 K) [W/m/K],thermal conductivity ([2]; 320 K) [W/m/K],thermal conductivity ([2]; 330 K) [W/m/K],mass density [2] [kg/m3],thermal conductivity ([2]; 340 K) [W/m/K],thermal conductivity ([2]; 350 K) [W/m/K],thermal conductivity ([2]; 360 K) [W/m/K],thermal conductivity ([2]; 370 K) [W/m/K],thermal conductivity ([2]; 380 K) [W/m/K],thermal conductivity ([2]; 390 K) [W/m/K],also measured
CCCCn1cc[n+](C)c1.F[B-](F)(F)F [1-butyl-3-methylimidazolium tetrafluoroborate],308.75 ± 120,341.75 ± 140,355.76 ± 140,367.74 ± 150,378.36 ± 150,386.95 ± 150,393.96 ± 160,399.16 ± 160,119.78 ± 4.1,0.186 ± 0.006,0.185 ± 0.006,0.184 ± 0.006,0.184 ± 0.006,1174.7 ± 0.7,0.183 ± 0.006,0.183 ± 0.006,0.182 ± 0.006,0.181 ± 0.006,0.181 ± 0.006,0.18 ± 0.006,"molar heat capacity at constant pressure ([1]; 223.15 K): 268.74 ± 110 J/K/mol; molar heat capacity at constant pressure ([1]; 248.15 K): 289.54 ± 120 J/K/mol; molar heat capacity at constant pressure ([1]; 298.15 K): 326.15 ± 130 J/K/mol; molar heat capacity at constant pressure ([1]; 498.15 K): 402.77 ± 160 J/K/mol; molar heat capacity at constant pressure ([1]; 523.15 K): 404.35 ± 160 J/K/mol; molar heat capacity at constant pressure ([1]; 548.15 K): 404.35 ± 160 J/K/mol; molar heat capacity at constant pressure ([1]; 573.15 K): 402.77 ± 160 J/K/mol; Glass transition temperature ([2]; Glass, DTA): -87.38 ± 2.6 °C"
CCC[n+]1ccn(C)c1C.O=S(=O)([N-]S(=O)(=O)C(F)(F)F)C(F)(F)F,–,473.46 ± 190,487.72 ± 200,501.98 ± 200,515.4 ± 210,528.4 ± 210,540.98 ± 220,553.14 ± 220,90.05 ± 2.7,0.13 ± 0.005,0.13 ± 0.005,0.129 ± 0.005,0.129 ± 0.005,1420.5 ± 0.8,0.128 ± 0.005,0.128 ± 0.005,0.127 ± 0.005,0.127 ± 0.005,0.126 ± 0.005,0.126 ± 0.005,molar heat capacity at constant pressure ([1]; 498.15 K): 564.47 ± 230 J/K/mol; molar heat capacity at constant pressure ([1]; 523.15 K): 575.79 ± 230 J/K/mol; molar heat capacity at constant pressure ([1]; 548.15 K): 586.69 ± 230 J/K/mol; molar heat capacity at constant pressure ([1]; 573.15 K): 597.18 ± 240 J/K/mol; molar heat capacity at constant pressure ([1]; 598.15 K): 607.24 ± 240 J/K/mol; molar heat capacity at constant pressure ([1]; 623.15 K): 616.89 ± 250 J/K/mol; molar heat capacity at constant pressure ([1]; 663.15 K): 631.15 ± 250 J/K/mol; Normal melting temperature ([2]; DTA): 11.29 ± 2.6 °C; Molar enthalpy of transition or fusion [3]: 4.71 ± 1.91 kcal/mol
CCn1cc[n+](C)c1.F[B-](F)(F)F [1-ethyl-3-methylimidazolium tetrafluoroborate],244.49 ± 98,–,–,257.95 ± 100,–,–,–,–,36.07 ± 0.75,0.199 ± 0.006,0.197 ± 0.006,0.196 ± 0.006,0.195 ± 0.006,1252.6 ± 0.8,0.194 ± 0.006,0.193 ± 0.006,0.191 ± 0.006,0.19 ± 0.006,0.189 ± 0.006,0.188 ± 0.006,molar heat capacity at constant pressure ([1]; 293.15 K): 250.04 ± 100 J/K/mol; molar heat capacity at constant pressure ([1]; 313.15 K): 254 ± 100 J/K/mol; molar heat capacity at constant pressure ([1]; 333.15 K): 256.77 ± 100 J/K/mol; molar heat capacity at constant pressure ([1]; 353.15 K): 258.15 ± 100 J/K/mol; molar heat capacity at constant pressure ([1]; 393.15 K): 256.57 ± 100 J/K/mol; molar heat capacity at constant pressure ([1]; 403.15 K): 255.18 ± 100 J/K/mol; Normal melting temperature ([2]; DTA): 14.42 ± 1.1 °C; Molar enthalpy of transition or fusion [3]: 2.28 ± 0.908 kcal/mol
